The results in this text go back to patent publication US11279681B2, “3-alkyl bicyclic [4,5,0] hydroxamic acids as HDAC inhibitors” (Valo Health, Inc., priority 2015, dated 2022).

A value given as a limit tells only on which side of the number the result lay.

The experiment concerns the target T1, HDAC6 (Homo sapiens, UniProt Q9UBN7).
T1 sequence (Q9UBN7 1-1215): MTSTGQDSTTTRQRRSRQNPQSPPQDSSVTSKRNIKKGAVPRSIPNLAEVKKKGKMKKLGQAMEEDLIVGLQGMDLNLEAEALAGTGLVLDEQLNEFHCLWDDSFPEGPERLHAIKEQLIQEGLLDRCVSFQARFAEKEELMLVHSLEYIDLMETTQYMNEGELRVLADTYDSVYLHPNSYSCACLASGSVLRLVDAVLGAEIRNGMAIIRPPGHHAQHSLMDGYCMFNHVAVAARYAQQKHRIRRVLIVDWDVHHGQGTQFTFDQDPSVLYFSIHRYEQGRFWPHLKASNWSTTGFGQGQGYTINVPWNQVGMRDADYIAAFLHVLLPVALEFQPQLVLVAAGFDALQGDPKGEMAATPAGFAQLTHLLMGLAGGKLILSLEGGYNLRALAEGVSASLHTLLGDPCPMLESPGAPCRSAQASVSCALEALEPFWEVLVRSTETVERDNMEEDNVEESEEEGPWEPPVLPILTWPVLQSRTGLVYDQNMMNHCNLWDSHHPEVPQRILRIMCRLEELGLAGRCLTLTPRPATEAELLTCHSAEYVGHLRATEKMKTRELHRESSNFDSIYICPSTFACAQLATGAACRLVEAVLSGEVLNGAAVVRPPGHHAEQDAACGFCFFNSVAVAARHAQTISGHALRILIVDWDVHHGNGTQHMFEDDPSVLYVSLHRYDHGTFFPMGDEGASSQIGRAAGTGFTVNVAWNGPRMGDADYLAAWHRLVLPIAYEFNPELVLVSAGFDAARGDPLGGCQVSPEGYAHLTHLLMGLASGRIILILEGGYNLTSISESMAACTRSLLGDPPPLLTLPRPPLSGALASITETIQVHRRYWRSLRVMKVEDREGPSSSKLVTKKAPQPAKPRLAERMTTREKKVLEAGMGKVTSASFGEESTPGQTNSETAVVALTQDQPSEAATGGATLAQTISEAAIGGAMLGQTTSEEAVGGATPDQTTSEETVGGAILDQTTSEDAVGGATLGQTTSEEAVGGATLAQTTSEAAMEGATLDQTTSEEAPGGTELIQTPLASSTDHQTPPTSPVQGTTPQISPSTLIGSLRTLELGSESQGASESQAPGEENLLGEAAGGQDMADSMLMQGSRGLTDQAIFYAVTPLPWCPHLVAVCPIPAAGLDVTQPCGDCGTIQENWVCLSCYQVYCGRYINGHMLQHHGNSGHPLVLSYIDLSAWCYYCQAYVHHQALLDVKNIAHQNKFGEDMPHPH
The experiment is described as follows: In vitro histone deacetylase assay: enzymatic HDAC6 electrophoretic mobility shift assay. As to conditions: full length human recombinant HDAC6, 1 nM enzyme, 2 μM peptide substrate RHKK(Ac)-NH2, 25° C.; read-out: Inhibitory Concentration (IC50) Values for Representative Compounds against HDAC6, Activity Range. It is filed as biochemical.

For `C[C@H]1COc2cc(C(=O)NO)ccc2CN1C(=O)N1CCCCC1` [(S)-N-hydroxy-3-methyl-4-(piperidine-1-carbonyl)-2,3,4,5-tetrahydrobenzo[f][1,4]oxazepine-8-carboxamide], the IC50 is ≤ 100 nM.
For the compound `C[C@H]1COc2cc(C(=O)NO)ccc2CN1C(=O)N1CCN(C)CC1` [(S)-N-hydroxy-3-methyl-4-(4-methylpiperazine-1-carbonyl)-2,3,4,5-tetrahydrobenzo[f][1,4]oxazepine-8-carboxamide], the IC50 was 100 to 500 nM.
With `C[C@H]1COc2cc(C(=O)NO)ccc2CN1c1cccnc1` [(S)-N-hydroxy-3-methyl-4-(pyridin-3-yl)-2,3,4,5-tetrahydrobenzo[f][1,4]oxazepine-8-carboxamide], the IC50 was ≤ 100 nM.
`O=C1CN(Cc2nc3ccccc3[nH]2)Cc2cc(C(=O)NO)ccc2N1`: the IC50 was ≤ 100 nM.
In the case of `CC[C@H]1COc2cc(C(=O)NO)ccc2CN1c1ccccc1C` [(S)-3-ethyl-N-hydroxy-4-(o-tolyl)-2,3,4,5-tetrahydrobenzo[f][1,4]oxazepine-8-carboxamide], the IC50 was ≤ 100 nM.
In the case of `COCCn1c(N2CCOc3cc(C(=O)NO)ccc3C2)nc2ccccc21`, the IC50 was ≤ 100 nM.
With `COc1ccc(CN2CCOc3cc(C(=O)NO)ccc3C2)nc1`, the IC50 is 100 to 500 nM.
Take `COC(=O)N1Cc2ccc(C(=O)NO)cc2OC[C@@H]1C` [methyl(S)-8-(hydroxycarbamoyl)-3-methyl-2,3-dihydrobenzo[f][1,4]oxazepine-4(5H)-carboxylate]: the IC50 is ≤ 100 nM.
For the compound `CC[C@H]1COc2cc(C(=O)NO)ccc2CN1C` [(S)-3-ethyl-N-hydroxy-4-methyl-2,3,4,5-tetrahydrobenzo[f][1,4]oxazepine-8-carboxamide], the IC50 is ≤ 100 nM.
Turning to `CC(C)N1CCC(CN2CC(=O)Nc3ccc(C(=O)NO)cc3C2)CC1`, the IC50 is > 500 nM.
Regarding `C[C@H]1COc2cc(C(=O)NO)ccc2CN1C(=O)N(C)C1CCOCC1` [(S)-N8-hydroxy-N4,3-dimethyl-N4-(tetrahydro-2H-pyran-4-yl)-2,3-dihydrobenzo[f][1,4]oxazepine-4,8(5H)-dicarboxamide], the IC50 is ≤ 100 nM.
`COc1ccc(NC(=O)N2Cc3ccc(C(=O)NO)cc3OC[C@@H]2C(C)C)cc1`: the IC50 was ≤ 100 nM.
As for `O=C1CN(Cc2ccccc2OC(F)(F)F)Cc2cc(C(=O)NO)ccc2N1`, the IC50 was ≤ 100 nM.
Consider `CC(=O)N1CCCC(CN2CC(=O)Nc3ccc(C(=O)NO)cc3C2)C1` (centres unmarked), for which the IC50 is > 500 nM.
Next, `CC(C)OC(=O)N1Cc2ccc(C(=O)NO)cc2OC[C@@H]1C` [isopropyl(S)-8-(hydroxycarbamoyl)-3-methyl-2,3-dihydrobenzo[f][1,4]oxazepine-4(5H)-carboxylate]: ≤ 100 nM.
Next, `COc1ccc(S(=O)(=O)N2CCOc3cc(C(=O)NO)cnc3C2)cc1`: 100 to 500 nM; `COCCN1CCOc2cc(C(=O)NO)ccc2C1` [N-hydroxy-4-(2-methoxyethyl)-2,3,4,5-tetrahydrobenzo[f][1,4]oxazepine-8-carboxamide]: 100 to 500 nM.
As to `CC(C)[C@H]1COc2cc(C(=O)NO)ccc2CN1c1ccccn1` [(S)-N-hydroxy-3-isopropyl-4-(pyridin-2-yl)-2,3,4,5-tetrahydrobenzo[f][1,4]oxazepine-8-carboxamide], the IC50 was ≤ 100 nM.
As to `O=C1CN(Cc2cn3ccccc3n2)Cc2cc(C(=O)NO)ccc2N1`, the IC50 was ≤ 100 nM.
`C[C@H]1CNCc2ccc(C(=O)NO)cc2O1` [(S)—N-hydroxy-2-methyl-2,3,4,5-tetrahydrobenzo[f][1,4]oxazepine-8-carboxamide]: the IC50 fell in the range of 100 to 500 nM.
For the compound `COc1ccc(CN2CC(=O)Nc3ccc(C(=O)NO)cc3C2)cc1`, the IC50 was 100 to 500 nM.
In the case of `C[C@H]1COc2cc(C(=O)NO)ccc2CN1CC1CCC1` [(S)-4-(cyclobutylmethyl)-N-hydroxy-3-methyl-2,3,4,5-tetrahydrobenzo[f][1,4]oxazepine-8-carboxamide] it was ≤ 100 nM; in that of `C[C@H]1COc2cc(C(=O)NO)ccc2CN1C` [(S)—N-hydroxy-3,4-dimethyl-2,3,4,5-tetrahydrobenzo[f][1,4]oxazepine-8-carboxamide], 100 to 500 nM; in that of `O=C(NO)c1ccc2c(c1)OCCN(c1nc3ccccc3o1)C2`, ≤ 100 nM.
`O=C(NO)c1ccc2c(c1)OCCN(Cc1nc3ccccc3[nH]1)C2`: the IC50 was ≤ 100 nM.
On to `COc1ccc(CN2CCOc3ccc(C(=O)NO)cc3C2)nc1`, for which the IC50 is > 500 nM.
As to `COc1ccc(S(=O)(=O)N2Cc3ccc(C(=O)NO)cc3OC[C@@H]2C)cc1`, the IC50 is 100 to 500 nM.
Regarding `C[C@H]1COc2cc(C(=O)NO)ccc2CN1C(=O)NC1CCOCC1` [(S)-N8-hydroxy-3-methyl-N4-(tetrahydro-2H-pyran-4-yl)-2,3-dihydrobenzo[f][1,4]oxazepine-4,8(5H)-dicarboxamide], the IC50 was ≤ 100 nM.
Consider `C[C@H]1COc2cc(C(=O)NO)ccc2CN1` [(S)—N-hydroxy-3-methyl-2,3,4,5-tetrahydrobenzo[f][1,4]oxazepine-8-carboxamide], for which the IC50 fell in the range of 100 to 500 nM.
Consider `C[C@H]1COc2cc(C(=O)NO)ccc2CN1C(=O)N(C)C` [(S)-N8-hydroxy-N4,N4,3-trimethyl-2,3-dihydrobenzo[f][1,4]oxazepine-4,8(5H)-dicarboxamide], for which the IC50 is ≤ 100 nM.
For `CC(C)[C@H]1COc2cc(C(=O)NO)ccc2CN1C`, the IC50 was ≤ 100 nM.
Turning to `COC1CCN(C(=O)N2Cc3ccc(C(=O)NO)cc3OC[C@@H]2C)C1` (stereo partly drawn) [(3S)-N-hydroxy-4-(3-methoxypyrrolidine-1-carbonyl)-3-methyl-2,3,4,5-tetrahydrobenzo[f][1,4]oxazepine-8-carboxamide], the IC50 is ≤ 100 nM.
For the compound `CC(C)(C)Oc1ccc(CN2CC(=O)Nc3ccc(C(=O)NO)cc3C2)cc1`, the IC50 fell in the range of 100 to 500 nM.
Turning to `COc1ccc(NC(=O)N2Cc3ccc(C(=O)NO)cc3OC[C@H]2C)cc1`, the IC50 was in the range of 100 to 500 nM.
Regarding `COCCNC(=O)N1Cc2ccc(C(=O)NO)cc2OC[C@@H]1C` [(S)-N8-hydroxy-N4-(2-methoxyethyl)-3-methyl-2,3-dihydrobenzo[f][1,4]oxazepine-4,8(5H)-dicarboxamide], the IC50 was ≤ 100 nM.
On to `O=C1CN(Cc2cccc3c2OC(F)(F)O3)Cc2cc(C(=O)NO)ccc2N1`, for which the IC50 was ≤ 100 nM.
`COc1ccc(CN2Cc3ccc(C(=O)NO)cc3OC[C@H]2C(C)C)cc1`: the IC50 is ≤ 100 nM.
For the compound `CC1COCCN1C(=O)N1Cc2ccc(C(=O)NO)cc2OC[C@@H]1C` (stereo partly drawn) [(3S)-N-hydroxy-3-methyl-4-(3-methylmorpholine-4-carbonyl)-2,3,4,5-tetrahydrobenzo[f][1,4]oxazepine-8-carboxamide], the IC50 is ≤ 100 nM.
For the compound `C[C@H]1COc2cc(C(=O)NO)ccc2CN1C1CCCC1` [(S)-4-cyclopentyl-N-hydroxy-3-methyl-2,3,4,5-tetrahydrobenzo[f][1,4]oxazepine-8-carboxamide], the IC50 lay in the range of 100 to 500 nM.
Regarding `COc1ccc(CN2CCOc3cc(C(=O)NO)ccc3C2)cn1`, the IC50 was in the range of 100 to 500 nM.
Regarding `CN1CCOc2cc(C(=O)NO)ccc2C1` [N-hydroxy-4-methyl-2,3,4,5-tetrahydrobenzo[f][1,4]oxazepine-8-carboxamide], the IC50 was in the range of 100 to 500 nM.
In the case of `COc1ccc(CN2CCNc3ccc(C(=O)NO)cc3C2)cc1`, the IC50 was > 500 nM.
Next, `O=C1CN(Cc2cccc(Cl)c2)Cc2cc(C(=O)NO)ccc2N1`: 100 to 500 nM; `CC(c1ccc(F)cc1)N1Cc2ccc(C(=O)NO)cc2OC[C@@H]1C` (stereo partly drawn) [(3S)-4-(1-(4-fluorophenyl)ethyl)-N-hydroxy-3-methyl-2,3,4,5-tetrahydrobenzo[f][1,4]oxazepine-8-carboxamide]: 100 to 500 nM; `C[C@H]1COc2cc(C(=O)NO)ccc2CN1CC1CCCCC1` [(S)-4-(cyclohexylmethyl)-N-hydroxy-3-methyl-2,3,4,5-tetrahydrobenzo[f][1,4]oxazepine-8-carboxamide]: ≤ 100 nM.
`COc1ccc(S(=O)(=O)N2CC(=O)Nc3ccc(C(=O)NO)cc3C2)cc1`: the IC50 was > 500 nM.
In the case of `O=C(NO)c1ccc2c(c1)OCCN(C(=O)N1CCCC1)C2` [N-hydroxy-4-(pyrrolidine-1-carbonyl)-2,3,4,5-tetrahydrobenzo[f][1,4]oxazepine-8-carboxamide] it was ≤ 100 nM.
